Measured values as given in ChEMBL document CHEMBL1123697, “Heteroatom-activated beta-lactam antibiotics: considerations of differences in the biological activity of [[3(S)-(acylamino)-2-oxo-1-azetidinyl]oxy]acetic acids (oxamazins) and the corresponding sulfur analogues (thiamazins)” (J Med Chem, 1987).

What was measured:
Assay type in all cases: ADME
Conditions in all cases: buffer
[1] = Pseudo first order rate constant for the alkaline hydrolysis of beta-lactams (35 degree Celsius) was determined at pH 10
[2] = Half life at pH 10
[3] = Pseudo first order rate constant for the alkaline hydrolysis of beta-lactams (35 degree Celsius) was determined at pH 11
[4] = Half life at pH 11

| k [1] [h⁻¹] | half-life [2] [h] | k [3] [h⁻¹] | half-life [4] [h] | Compound |
| --- | --- | --- | --- | --- |
| 0.31 | 2.2 | – | – | C[C@H]1[C@H](NC(=O)Cc2ccccc2)C(=O)N1OCC(=O)O |
| – | – | 0.029 | 24 | C[C@@H]1NC(=O)[C@H]1NC(=O)OCc1ccccc1 |
| 0.73 | 0.95 | – | – | C[C@H]1[C@H](NC(=O)Cc2ccccc2)C(=O)N1SCC(=O)[O-].[K+] |

| Compound | k [1] [h⁻¹] | half-life [2] [h] | k [3] [h⁻¹] | half-life [4] [h] |
| --- | --- | --- | --- | --- |
| C[C@H]1[C@H](NC(=O)/C(=N\OC(C)(C)C(=O)O)c2csc(N)n2)C(=O)N1S(=O)(=O)O [AZTREONAM] | 0.4 | – | – | – |
